Test results as given in PubChem BioAssay AID1963443 (Molecular Pharmacology Branch, DTP, NCI, 2024).

Tested on: MDA-MB-231 complex spheroids, growth inhibition
Assay: Anticancer human tumor MDA-MB-231 cell line growth inhibition [Asc];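 further: spheroids exposed to compounds for 7 days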
Conditions: for IC50: curve of first compound; for viability, T/C: stronger effect = lower value
Description: Multicellular complex tumor spheroid response to apoptosis pathway targeting inhibitors Alrizomadlin, Pelcitoclax, and Dasminapant in combination with a variety of drugs and investigational agents in selected tumor cell lines
The MDM2 inhibitor alrizomadlin, the Bcl-2/Bcl-xL inhibitor pelcitoclax, and the IAPs inhibitor dasminapant were evaluated both individually and in combination with standard of care and investigational anticancer small molecules within a complex spheroid model of solid tumors. . Complex spheroids include a stromal component modeled by human endothelial cells (HUVEC) and fibroblasts modeled by human mesenchymal stem cells (MSCs). The concentration ranges selected for each drug and investigational agent were based upon clinically achievable concentrations if the clinical Cmax of the agent was known.
Compounds. The drugs and investigational agents: alrizomadlin (APG-115; NSC831270), pelcitoclax (APG-1252; NSC835773), dasminapant (APG-1387;NSC834197), TAK-243 (NSC785004), copanlisib (NSC809693), olaparib (NSC753686), talazoparib (NSC767125), cobimetinib (NSC 768068), eltanexor (KPT-8602, NSC 794443), abemaciclib (NSC 768073), sotorasib (NSC818433), adagrasib (NSC 831453), MRTX-1133 (NSC 836407), Iadademestat (ORY1001, NSC 806812), and RMC-4630 (NSC839698), were obtained from the NCI Developmental Therapeutics Program Chemical Repository. The FDA-approved anticancer drug set is available from the Developmental Therapeutics Program at https://dtp.cancer.gov/organization/dscb/obtaining/available plates.htm. […] The stock solutions were prepared in dimethyl sulfoxide (DMSO, Sigma-Aldrich, St. Louis, MO, cat. D2650) at 800-fold the tested concentration and stored at -70 degrees C prior to their use. All drugs and investigational agents were tested over a range starting from a high concentration at or near the clinical Cmax and decreasing in half-log increments. If the clinical Cmax for an agent had not been determined, the highest concentration tested was 10 microM.
The patient-derived cancer (PDC) cell lines include five colon adenocarcinomas: 186277-243-T-J2-PDC, 616215-338-R-J1-PDC, 439559-082-T-J2-PDC, 463943-066-T-J2-PDC, and 519858-162-T-J1-PDC; three pancreatic carcinomas: 323965-272-R-J2-PDC, 521955-158-R6-J3-PDC, and 521955-158-R2-J5-PDC; two uterine sarcomas: 327498-152-R-J2-PDC and 993429-296-R-J1-PDC; two rhabdomyosarcomas: 755483-174-R-J1-PDC and 772245-204-R-J1-PDC; two soft tissue sarcomas: 126254-015-R-J1-PDC and 494315-158-R-J1-PDC; two malignant fibrous histiocytomas: 317291-083-R-J1-PDC and 596521-263-R-J1-PDC; two breast carcinomas: 171881-019-R-J1-PDC and 885512-296-R-J2-PDC; and one ovarian carcinoma: 6556581-035-R-J-PDC were obtained from the NCI PDMR, (https://pdmr.cancer.gov). The established cell lines HSSY-2 synovial sarcoma (RRID:CVCL 8719), SYO-1 synovial sarcoma (RRID:CVCL_7146), MPNST malignant peripheral neural sheath tumor were obtained from the Sloan Kettering Institute. The following established cell lines were purchased from the American Type Culture Collection (ATCC, Manassas, VA), Sor the received from the NCI repository:, PANC-1 pancreatic carcinoma (CRL-1469, RRID:CVCL_0480), OVCAR-5 ovarian carcinoma (RRID:CVCL_1628), OVCAR-8 ovarian carcinoma (RRID:CVCL_1629), , MCF-7 breast carcinoma (CRL-12584, RRID:CVCL_0031), MDA-MB-231 breast carcinoma (CRL-12532, RRID:CVCL_0062), NCI-H1876 small cell lung carcinoma (CRL-5902, RRID:CVCL_1503), NCI-H510A small cell lung carcinoma (HTB-184, RRID:CVCL_1565), NCI-H1417 (CRL-5869, RRID:CVCL_1469), and NCI-H196 small cell lung carcinoma (CRL-5823, RRID:CVCL_1509). Dr. Peter Houghton (Greehey Children's Cancer Research Institute, University of Texas Health Science Center, San Antonio, TX) provided Rh-18 rhabdomyosarcoma (RRID:CVCL_1659). Pooled donor human umbilical vein endothelial cells (HUVEC, Lonza, cat. CC-2519) and human mesenchymal stem cells (hMSC, Lonza, cat. PT-2501) were purchased from Lonza (Walkersville, MD).
Cell Culture. […]

[1] = second compound 0.03 µM, first compound 0.00316 µM
[2] = second compound 0.03 µM, first compound 0.01 µM
[3] = second compound 0.03 µM, first compound 0.0316 µM
[4] = second compound 0.03 µM, first compound 0.1 µM
[5] = second compound 0.0949 µM, first compound 0.00316 µM
[6] = second compound 0.0949 µM, first compound 0.01 µM
[7] = second compound 0.0949 µM, first compound 0.0316 µM
[8] = second compound 0.0949 µM, first compound 0.1 µM
[9] = second compound 0.3 µM, first compound 0.00316 µM
[10] = second compound 0.3 µM, first compound 0.01 µM
[11] = second compound 0.3 µM, first compound 0.0316 µM
[12] = second compound 0.3 µM, first compound 0.1 µM
[13] = second compound 0.949 µM, first compound 0.00316 µM
[14] = second compound 0.949 µM, first compound 0.01 µM
[15] = second compound 0.949 µM, first compound 0.0316 µM
[16] = second compound 0.949 µM, first compound 0.1 µM
[17] = second compound 3 µM, first compound 0.00316 µM
[18] = second compound 3 µM, first compound 0.01 µM
[19] = second compound 3 µM, first compound 0.0316 µM
[20] = second compound 3 µM, first compound 0.1 µM
[21] = second compound 0.03 µM, first compound 0.316 µM
[22] = second compound 0.03 µM, first compound 1 µM
[23] = second compound 0.0949 µM, first compound 0.316 µM
[24] = second compound 0.0949 µM, first compound 1 µM
[25] = second compound 0.3 µM, first compound 0.316 µM
[26] = second compound 0.3 µM, first compound 1 µM
[27] = second compound 0.949 µM, first compound 0.316 µM
[28] = second compound 0.949 µM, first compound 1 µM
[29] = second compound 3 µM, first compound 0.316 µM
[30] = second compound 3 µM, first compound 1 µM

| SMILES | IC50 (second compound 0.03 µM) [µM] | IC50 (second compound 0.0949 µM) [µM] | IC50 (second compound 0.3 µM) [µM] | IC50 (second compound 0.949 µM) [µM] | IC50 (second compound 3 µM) [µM] | viability, T/C [1] [%] | viability, T/C [2] [%] | viability, T/C [3] [%] | viability, T/C [4] [%] | viability, T/C [5] [%] | viability, T/C [6] [%] | viability, T/C [7] [%] | viability, T/C [8] [%] | viability, T/C [9] [%] | viability, T/C [11] [%] | viability, T/C [12] [%] | viability, T/C [15] [%] | viability, T/C [16] [%] | viability, T/C [19] [%] | viability, T/C [20] [%] | further results |
| --- | --- | --- | --- | --- | --- | --- | --- | --- | --- | --- | --- | --- | --- | --- | --- | --- | --- | --- | --- | --- | --- |
| Cn1ncnc1[C@H]1c2n[nH]c(=O)c3cc(F)cc(c23)N[C@@H]1c1ccc(F)cc1 + CCN1C(C(=O)NC23CCC(C(=O)O)(CC2)CC3)C(c2cccc(Cl)c2F)C2(C(=O)Nc3cc(Cl)ccc32)C12CCCCC2 | > 0.1 | > 0.1 | > 0.1 | > 0.1 | > 0.1 | 90.4 | 96.2 | 85 | 86 | 93.6 | 95.9 | 90.2 | 88.4 | 98.5 | 89.8 | 85.4 | 93.6 | 91.8 | 82 | 87.8 | viability, T/C (second compound 0.03 µM, first compound 0.000316 µM): 101%; viability, T/C (second compound 0.03 µM, first compound 0.001 µM): 96.3%; viability, T/C (second compound 0.0949 µM, first compound 0.000316 µM): 112%; viability, T/C (second compound 0.0949 µM, first compound 0.001 µM): 101%; viability, T/C (second compound 0.3 µM, first compound 0.000316 µM): 110%; viability, T/C (second compound 0.3 µM, first compound 0.001 µM): 110%; viability, T/C [10]: 102%; viability, T/C (second compound 0.949 µM, first compound 0.000316 µM): 108%; viability, T/C (second compound 0.949 µM, first compound 0.001 µM): 109%; viability, T/C [13]: 102%; viability, T/C [14]: 97.8%; viability, T/C (second compound 3 µM, first compound 0.000316 µM): 100%; viability, T/C (second compound 3 µM, first compound 0.001 µM): 99.4%; viability, T/C [17]: 94.4%; viability, T/C [18]: 91.8% |
| O=C(c1cc(Cc2n[nH]c(=O)c3ccccc23)ccc1F)N1CCN(C(=O)C2CC2)CC1 + CCN1C(C(=O)NC23CCC(C(=O)O)(CC2)CC3)C(c2cccc(Cl)c2F)C2(C(=O)Nc3cc(Cl)ccc32)C12CCCCC2 | > 10 | > 10 | > 10 | > 10 | > 10 |  |  | 99.1 | 93.9 |  |  | 106 | 104 |  | 103 | 103 | 102 | 107 | 99.1 | 103 | viability, T/C [21]: 93.8%; viability, T/C [22]: 88.2%; viability, T/C (second compound 0.03 µM, first compound 3.16 µM): 88.8%; viability, T/C (second compound 0.03 µM, first compound 10 µM): 73.8%; viability, T/C [23]: 98.8%; viability, T/C [24]: 99.5%; viability, T/C (second compound 0.0949 µM, first compound 3.16 µM): 90.2%; viability, T/C (second compound 0.0949 µM, first compound 10 µM): 77.3%; viability, T/C [25]: 100%; viability, T/C [26]: 97.5%; viability, T/C (second compound 0.3 µM, first compound 3.16 µM): 93%; viability, T/C (second compound 0.3 µM, first compound 10 µM): 80.3%; viability, T/C [27]: 103%; viability, T/C [28]: 101%; viability, T/C (second compound 0.949 µM, first compound 3.16 µM): 97.9%; viability, T/C (second compound 0.949 µM, first compound 10 µM): 80.7%; viability, T/C [29]: 94.8%; viability, T/C [30]: 93.4%; viability, T/C (second compound 3 µM, first compound 3.16 µM): 86.7%; viability, T/C (second compound 3 µM, first compound 10 µM): 77.8% |
| O=C(c1ccc(F)c(F)c1Nc1ccc(I)cc1F)N1CC(O)([C@@H]2CCCCN2)C1 + CCN1C(C(=O)NC23CCC(C(=O)O)(CC2)CC3)C(c2cccc(Cl)c2F)C2(C(=O)Nc3cc(Cl)ccc32)C12CCCCC2 | 0.0562 | 0.0569 | 0.0452 | 0.036 | 0.0145 | 81.9 | 65.3 | 53.4 | 47.6 | 84.8 | 64.5 | 54.1 | 47.6 | 95.7 | 53.2 | 44.4 | 52.3 | 40.3 | 43 | 31.7 | viability, T/C [21]: 30.3%; viability, T/C [22]: 5.13%; viability, T/C [23]: 30.6%; viability, T/C [24]: 4.62%; viability, T/C [10]: 63.6%; viability, T/C [25]: 27.3%; viability, T/C [26]: 4.93%; viability, T/C [13]: 86%; viability, T/C [14]: 58.5%; viability, T/C [27]: 22.6%; viability, T/C [28]: 4.93%; viability, T/C [17]: 70.9%; viability, T/C [18]: 48.6%; viability, T/C [29]: 11.5%; viability, T/C [30]: 4.76% |
